Source: patent US11339130B1 (Blade Therapeutics, Inc., priority 2016, dated 2022)
pIC50: −log10 of the molar value. Where two headings read alike, the source gives them in different places.

Legend:
[1] = test system: Calpain activity in SH-SY5Y cells; assay: SH-SY5Y + AMC fluorescence assay (Suc-LLVY-AMC substrate); type: cell-based; details: read-out: SH-SY5Y + AMC IC50
[2] = biological target: T1, Human Calpain 9/NS1 (Homo sapiens, UniProt O14815); assay: Calpain inhibition continuous fluorescence (FRET) assay, Human Calpain 9/NS1; type: biochemical; details: read-out: Human Calpain 9/NS1 IC50
T1 sequence (O14815 1-690): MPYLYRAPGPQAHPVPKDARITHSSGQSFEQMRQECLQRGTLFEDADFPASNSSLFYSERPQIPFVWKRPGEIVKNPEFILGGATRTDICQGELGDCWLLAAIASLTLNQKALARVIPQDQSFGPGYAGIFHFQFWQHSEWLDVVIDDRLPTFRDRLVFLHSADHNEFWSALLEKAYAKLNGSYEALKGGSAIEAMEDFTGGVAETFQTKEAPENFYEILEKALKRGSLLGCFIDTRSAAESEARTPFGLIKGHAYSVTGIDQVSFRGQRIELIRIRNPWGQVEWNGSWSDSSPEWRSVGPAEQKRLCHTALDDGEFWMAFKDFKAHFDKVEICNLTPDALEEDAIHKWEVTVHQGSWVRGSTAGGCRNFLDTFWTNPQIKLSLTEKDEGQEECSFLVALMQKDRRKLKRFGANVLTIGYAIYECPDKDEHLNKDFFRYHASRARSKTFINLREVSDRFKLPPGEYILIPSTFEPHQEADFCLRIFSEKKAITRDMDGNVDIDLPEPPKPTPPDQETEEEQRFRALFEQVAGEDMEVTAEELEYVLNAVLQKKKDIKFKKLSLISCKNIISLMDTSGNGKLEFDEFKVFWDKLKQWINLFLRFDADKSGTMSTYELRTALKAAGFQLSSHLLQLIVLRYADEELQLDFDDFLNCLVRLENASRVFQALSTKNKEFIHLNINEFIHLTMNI
T1 sequence (P04632 1-268 partner): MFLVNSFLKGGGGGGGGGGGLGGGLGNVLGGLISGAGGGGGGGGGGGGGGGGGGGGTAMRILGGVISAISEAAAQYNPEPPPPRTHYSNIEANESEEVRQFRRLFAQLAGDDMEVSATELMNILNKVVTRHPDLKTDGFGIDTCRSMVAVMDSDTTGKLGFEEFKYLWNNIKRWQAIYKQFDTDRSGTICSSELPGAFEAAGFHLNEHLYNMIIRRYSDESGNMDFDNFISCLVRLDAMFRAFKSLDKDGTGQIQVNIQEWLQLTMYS
Method in brief: (§1)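 Inhibitors were preincubated with calpain in 50 mM Tris pH 7.5, 100 mM NaCl, 1 mM DTT at 25C. Reactions were started with 5-FAM/QXL 520 FRET peptide substrate plus CaCl2 and read at 490/520 nm for 10 min. IC50s came from 4-parameter fits of slope rates (1-5 min).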

[3] = biological target: T2, Human Calpain 2/NS1 (Homo sapiens, UniProt P17655); assay: Calpain inhibition continuous fluorescence (FRET) assay, Human Calpain 2/NS1; type: biochemical; details: read-out: Human Calpain 2/NS1 IC50
T2 sequence (P17655 1-700): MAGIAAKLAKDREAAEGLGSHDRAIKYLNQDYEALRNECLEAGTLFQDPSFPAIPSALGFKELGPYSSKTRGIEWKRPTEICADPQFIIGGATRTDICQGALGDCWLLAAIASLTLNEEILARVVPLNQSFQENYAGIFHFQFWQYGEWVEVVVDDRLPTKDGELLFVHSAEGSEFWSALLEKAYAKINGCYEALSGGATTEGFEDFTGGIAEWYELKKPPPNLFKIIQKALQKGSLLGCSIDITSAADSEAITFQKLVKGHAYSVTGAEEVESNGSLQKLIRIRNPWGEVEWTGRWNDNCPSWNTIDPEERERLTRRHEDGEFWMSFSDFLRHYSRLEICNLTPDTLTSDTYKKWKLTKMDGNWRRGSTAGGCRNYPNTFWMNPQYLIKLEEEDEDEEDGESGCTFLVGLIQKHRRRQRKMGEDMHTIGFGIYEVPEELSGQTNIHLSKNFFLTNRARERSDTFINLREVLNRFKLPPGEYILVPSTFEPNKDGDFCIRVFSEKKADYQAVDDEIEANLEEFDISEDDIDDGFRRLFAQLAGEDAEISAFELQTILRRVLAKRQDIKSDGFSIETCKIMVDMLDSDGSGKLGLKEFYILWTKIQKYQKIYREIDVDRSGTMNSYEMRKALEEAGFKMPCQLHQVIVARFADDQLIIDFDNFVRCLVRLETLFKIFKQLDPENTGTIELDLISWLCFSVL
T2 sequence (P04632 1-268 partner): T1 sequence (P04632 1-268 partner)
Method in brief: as §1

[4] = biological target: T3, Human Calpain 1/NS1 (Homo sapiens, UniProt P07384); assay: Calpain inhibition continuous fluorescence (FRET) assay, Human Calpain 1/NS1; type: biochemical; details: read-out: Human Calpain 1/NS1 IC50
T3 sequence (P07384 1-714): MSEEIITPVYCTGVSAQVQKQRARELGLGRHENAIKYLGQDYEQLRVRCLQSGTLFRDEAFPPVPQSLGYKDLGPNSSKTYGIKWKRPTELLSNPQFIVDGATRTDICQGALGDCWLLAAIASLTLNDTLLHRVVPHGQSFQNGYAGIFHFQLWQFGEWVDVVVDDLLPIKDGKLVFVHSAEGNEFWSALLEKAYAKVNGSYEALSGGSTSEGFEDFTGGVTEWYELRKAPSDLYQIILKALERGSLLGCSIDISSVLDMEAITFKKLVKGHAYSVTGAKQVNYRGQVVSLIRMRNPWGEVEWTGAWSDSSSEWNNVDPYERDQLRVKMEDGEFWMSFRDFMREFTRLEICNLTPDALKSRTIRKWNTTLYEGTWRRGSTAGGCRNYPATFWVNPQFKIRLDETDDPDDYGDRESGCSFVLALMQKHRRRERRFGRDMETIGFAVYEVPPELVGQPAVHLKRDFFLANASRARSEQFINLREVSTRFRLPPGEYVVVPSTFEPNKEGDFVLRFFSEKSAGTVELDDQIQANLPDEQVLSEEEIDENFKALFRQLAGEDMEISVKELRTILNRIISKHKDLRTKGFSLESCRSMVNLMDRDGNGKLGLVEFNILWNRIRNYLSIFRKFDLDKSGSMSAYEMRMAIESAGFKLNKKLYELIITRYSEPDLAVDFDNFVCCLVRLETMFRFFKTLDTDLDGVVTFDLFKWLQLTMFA
T3 sequence (P04632 1-268 partner): T1 sequence (P04632 1-268 partner)
Method in brief: as §1

[5] = test system: Calpain activity in SH-SY5Y cells (SBDP-150); assay: SH-SY5Y Spectrin western blot assay (SBDP-150 breakdown product, A23187-induced); type: cell-based; details: Homo sapiens, SH-SY5Y cells, read-out: SH-SY5Y Spectrin IC50
[6] = Column D, A23187-induced SBDP-150
[7] = A23187-induced SBDP-150, western blot

Compound | pIC50 ([1]; Column E) | pIC50 ([2]; Column C) | pIC50 ([3]; Column B) | pIC50 ([4]; Column A) | pIC50 [5, 6] | pIC50 [1] | pIC50 [2] | pIC50 [3] | pIC50 [4] | pIC50 [5, 7]
NC(=O)C(=O)[C@H](Cc1ccccc1)NC(=O)c1sc(C2CC2)nc1-c1ccccc1 [Compound 207, (S)—N-(4-amino-3,4-dioxo-1-phenylbutan-2-yl)-2-cyclopropyl-4-phenylthiazole-5-carboxamide] | > 5.00 | > 5.52 | > 5.52 | > 5.52 | 4.60 to 5.00 | – | – | – | – | –
Cn1nc(C(=O)N[C@@H](Cc2ccccc2)C(=O)C(N)=O)c(-c2ccccc2)n1 [Compound 259, (S)—N-(4-amino-3,4-dioxo-1-phenylbutan-2-yl)-2-methyl-5-phenyl-2H-1,2,3-triazole-4-carboxamide] | 4.60 to 5.00 | > 5.52 | > 5.52 | > 5.52 | > 5.00 | – | – | – | – | –
COc1cccc(-c2nn(C)cc2C(=O)N[C@@H](Cc2ccccc2)C(=O)C(N)=O)c1 [Compound 177, (S)—N-(4-amino-3,4-dioxo-1-phenylbutan-2-yl)-3-(3-methoxyphenyl)-1-methyl-1H-pyrazole-4-carboxamide] | > 5.00 | > 5.52 | > 5.52 | > 5.52 | 4.60 to 5.00 | – | – | – | – | –
Cc1noc(-c2ccccc2)c1C(=O)N[C@@H](Cc1ccccc1)C(=O)C(N)=O [Compound 23, (S)—N-(4-amino-3,4-dioxo-1-phenylbutan-2-yl)-3-methyl-5-phenylisoxazole-4-carboxamide] | < 4.60 | > 5.52 | > 5.52 | > 5.52 | 4.60 to 5.00 | – | – | – | – | –
NC(=O)C(=O)C(Cc1ccccc1)NC(=O)c1cc(C(F)(F)F)sc1-c1ccccc1 (stereo not drawn) [Compound 286] | < 4.60 | > 5.52 | > 5.52 | > 5.52 | > 5.00 | – | – | – | – | –
Cn1cc(C(=O)N[C@@H](Cc2ccccc2)C(=O)C(N)=O)c(-c2ccccc2F)n1 [Compound 181, (S)—N-(4-amino-3,4-dioxo-1-phenylbutan-2-yl)-3-(2-fluorophenyl)-1-methyl-1H-pyrazole-4-carboxamide] | > 5.00 | > 5.52 | > 5.52 | > 5.52 | > 5.00 | – | – | – | – | –
Cn1cc(C(=O)N[C@@H](Cc2ccccc2)C(=O)C(=O)NCCC(N)=O)c(-c2ccccc2)n1 [Compound 338, (S)—N-(4-((3-amino-3-oxopropyl)amino)-3,4-dioxo-1-phenylbutan-2-yl)-1-methyl-3-phenyl-1H-pyrazole-4-carboxamide] | – | – | – | – | – | > 5.00 | > 5.52 | > 5.52 | > 5.52 | < 4.60
Cn1ncc(C(=O)N[C@@H](Cc2ccccc2)C(=O)C(N)=O)c1-c1ccccc1 [Compound 45, (S)—N-(4-amino-3,4-dioxo-1-phenylbutan-2-yl)-1-methyl-5-phenyl-1H-pyrazole-4-carboxamide] | 4.60 to 5.00 | > 5.52 | > 5.52 | > 5.52 | < 4.60 | – | – | – | – | –
Cc1nc(-c2ccccc2)c(C(=O)N[C@@H](Cc2ccc(O)cc2)C(=O)C(N)=O)o1 [Compound 354] | – | – | – | – | – | > 5.00 | > 5.52 | > 5.52 | > 5.52 | > 5.00
CC[C@@H](C)[C@H](NC(=O)c1cn(C)nc1-c1ccccc1)C(=O)C(N)=O [Compound 333, N-((3S,4R)-1-amino-4-methyl-1,2-dioxohexan-3-yl)-1-methyl-3-phenyl-1H-pyrazole-4-carboxamide] | – | – | – | – | – | < 4.60 | > 5.52 | > 5.52 | > 5.52 | < 4.60
Cn1cc(C(=O)NC(Cc2ccccc2)C(=O)C(N)=O)c(-c2ccccc2C(F)(F)F)n1 (stereo not drawn) [Compound 513, N-(4-amino-3,4-dioxo-1-phenylbutan-2-yl)-1-methyl-3-(2-(trifluoromethyl)phenyl)-1H-pyrazole-4-carboxamide] | – | – | – | – | – | > 5.00 | 5.00 to 5.52 | 5.00 to 5.52 | 5.00 to 5.52 | < 4.60
Cc1cccc(-c2oncc2C(=O)NC(Cc2ccccc2)C(=O)C(N)=O)c1 (stereo not drawn) [Compound 560, N-(4-amino-3,4-dioxo-1-phenylbutan-2-yl)-5-(m-tolyl)isoxazole-4-carboxamide] | – | – | – | – | – | < 4.60 | > 5.52 | > 5.52 | > 5.52 | 4.60 to 5.00
Cn1cc(C(=O)N[C@@H](Cc2ccccc2)C(=O)C(N)=O)c(-c2ccc(F)cc2)n1 [Compound 179, (S)—N-(4-amino-3,4-dioxo-1-phenylbutan-2-yl)-3-(4-fluorophenyl)-1-methyl-1H-pyrazole-4-carboxamide] | < 4.60 | > 5.52 | > 5.52 | > 5.52 | 4.60 to 5.00 | – | – | – | – | –
Cc1cc(C(=O)N[C@@H](Cc2ccccc2)C(=O)C(N)=O)n(-c2cccc(COc3ccccc3)c2)n1 [Compound 231, (S)—N-(4-amino-3,4-dioxo-1-phenylbutan-2-yl)-3-methyl-1-(3-(phenoxymethyl)phenyl)-1H-pyrazole-5-carboxamide] | < 4.60 | > 5.52 | > 5.52 | > 5.52 | < 4.60 | – | – | – | – | –
NC(=O)C(=O)C(Cc1ccccc1)NC(=O)c1cn(C(F)F)nc1-c1ccccn1 (stereo not drawn) [Compound 550, N-(4-amino-3,4-dioxo-1-phenylbutan-2-yl)-1-(difluoromethyl)-3-(pyridin-2-yl)-1H-pyrazole-4-carboxamide] | – | – | – | – | – | 4.60 to 5.00 | > 5.52 | > 5.52 | > 5.52 | < 4.60
